Tests used:
[1] = Induction of anti-CD3 antibodies-stimulated human T cell activation at 1 uM assessed fold increase in CD25 expression measured by ELISA assay; assay type: functional, T cell line; note: reference of the scale not given here
[2] = molecular target: E3 ubiquitin-protein ligase CBL-B (Homo sapiens, UniProt Q13191); assay: Inhibition of N-terminal Avi-tagged human CBL-B (36 to 427 residues) incubated with 60 nM Src kinase for 1.5 hrs followed by incubation with fluorescently labeled UbcH5B-Ub for 1 hr and measured by TR-FRET assay; assay type: single protein
E3 ubiquitin-protein ligase CBL-B, sequence (Q13191 whole entry, the tested form may be a part): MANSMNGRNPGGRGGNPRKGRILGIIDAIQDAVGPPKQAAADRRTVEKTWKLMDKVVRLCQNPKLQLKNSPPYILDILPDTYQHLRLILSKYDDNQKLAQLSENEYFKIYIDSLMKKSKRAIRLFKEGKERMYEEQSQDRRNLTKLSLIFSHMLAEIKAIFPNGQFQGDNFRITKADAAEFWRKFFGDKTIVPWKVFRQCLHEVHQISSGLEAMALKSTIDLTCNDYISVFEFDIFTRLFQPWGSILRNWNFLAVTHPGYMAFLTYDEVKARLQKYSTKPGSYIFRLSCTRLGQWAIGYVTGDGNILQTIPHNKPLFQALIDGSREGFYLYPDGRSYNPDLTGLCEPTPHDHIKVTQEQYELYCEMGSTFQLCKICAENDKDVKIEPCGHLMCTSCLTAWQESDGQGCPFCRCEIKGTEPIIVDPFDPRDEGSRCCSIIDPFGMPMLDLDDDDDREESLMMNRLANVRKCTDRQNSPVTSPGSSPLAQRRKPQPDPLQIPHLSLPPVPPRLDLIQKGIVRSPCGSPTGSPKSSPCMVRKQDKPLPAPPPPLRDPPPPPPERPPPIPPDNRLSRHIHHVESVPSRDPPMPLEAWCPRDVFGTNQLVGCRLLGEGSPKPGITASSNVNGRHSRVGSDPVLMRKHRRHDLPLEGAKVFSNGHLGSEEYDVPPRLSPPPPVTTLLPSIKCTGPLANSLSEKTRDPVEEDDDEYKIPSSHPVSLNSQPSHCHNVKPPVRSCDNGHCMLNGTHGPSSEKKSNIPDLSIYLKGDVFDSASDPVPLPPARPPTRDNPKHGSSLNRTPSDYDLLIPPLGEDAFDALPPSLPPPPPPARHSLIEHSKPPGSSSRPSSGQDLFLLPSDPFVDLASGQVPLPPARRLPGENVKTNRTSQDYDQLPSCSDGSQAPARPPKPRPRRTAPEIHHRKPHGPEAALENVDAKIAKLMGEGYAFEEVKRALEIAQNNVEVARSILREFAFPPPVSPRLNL

[3] = Induction of anti-CD3/CD28 antibodies-stimulated human T cell activation at 1 uM assessed fold increase in CD25 expression measured by ELISA assay; assay type: functional, T cell line
[4] = Induction of anti-CD3/CD28 antibodies-stimulated human T cell activation at 0.3 uM assessed fold increase in IL-2 secretion measured by ELISA assay; assay type: functional, T cell line
[5] = Induction of anti-CD3/CD28 antibodies-stimulated human T cell activation at 0.3 uM assessed fold increase in CD25 expression measured by ELISA assay; assay type: functional, T cell line
[6] = Induction of anti-CD3/CD28 antibodies-stimulated human T cell activation at 1 uM assessed fold increase in IL-2 secretion measured by ELISA assay; assay type: functional, T cell line
[7] = Induction of anti-CD3 antibodies-stimulated human T cell activation at 1 uM assessed fold increase in IL-2 secretion measured by ELISA assay; assay type: functional, T cell line; note: reference of the scale not given here

Structure (SMILES) | IC50 [2] [nM] | fold change (FC) [1] | fold change (FC) [3] | fold change (FC) [4] | fold change (FC) [5] | fold change (FC) [6] | fold change (FC) [7] | FC [1] | FC [3] | FC [4] | FC [5] | FC [6] | FC [7]
Cn1cnnc1CC1(c2cccc(N3Cc4c(cc(CN5Cc6cccc(F)c6C5)cc4C(F)(F)F)C3=O)c2)COC1 | < 100 | >=1.001 | 1.31 | 2.51 | 1.31 | >=7.5 | >=0.201 |  |  |  |  |  | 
CC(c1cc2c(c(C(F)(F)F)c1)CN(c1cccc(C3(Cc4nncn4C)COC3)c1)C2=O)N1CC(S(C)(=O)=O)C1 (configuration not stated) | < 100 | 0.601 | 1.01 | 1.01 | 1.01 | 1.01 | 0.101 |  |  |  |  |  | 
Cc1cc(C(=O)Nc2cccc(C3(Cc4nocc4C)COC3)c2)nc(C2CC2)n1 | < 100 | >=1.001 | 1.31 | >=7.5 | 1.31 | >=7.5 | >=0.201 |  |  |  |  |  | 
Cc1cc(C(=O)Nc2cc(C3CC3)cc(C3(Cc4nncn4C)COC3)c2)nc(C2CC2)n1 | < 100 | >=1.001 | 1.31 | 2.51 | 1.01 | >=7.5 | >=0.201 |  |  |  |  |  | 
Cn1cnnc1CC1(c2cccc(N3Cc4c(cc(N5CCN6CCC[C@@H]6C5)cc4C(F)(F)F)C3=O)c2)COC1 | < 100 | >=1.001 | >=1.76 | >=7.5 | >=1.76 | >=7.5 | >=0.201 |  |  |  |  |  | 
Cn1cnnc1CC1(c2cccc(N3Cc4c(cc(CN5C6CCC5CC6)cc4C(F)(F)F)C3=O)c2)COC1 | < 100 | >=1.001 | 1.51 | >=7.5 | 1.51 | >=7.5 | >=0.201 |  |  |  |  |  | 
Cn1cnnc1CC1(c2cccc(N3Cc4c(cc(CN5CCC6(CC6)C5)cc4C(F)(F)F)C3=O)c2)CCC1 | < 100 | >=1.001 | 1.31 | >=7.5 | 1.31 | >=7.5 | >=0.201 |  |  |  |  |  | 
C[C@H](c1cc2c(c(C(F)(F)F)c1)CN(c1cccc(C3(Cc4nncn4C)COC3)c1)C2=O)N1CC(F)C1 | < 100 | >=1.001 | 1.51 | 2.51 | 1.31 | 5 | 0.101 |  |  |  |  |  | 
CC(c1cc2c(c(C3CC3)n1)CN(c1cccc(C3(Cc4nncn4C)COC3)c1)C2=O)N1CCC2(CC2)C1 (configuration not stated) | < 100 | 0.801 | 1.01 | 2.51 | 1.01 | 5 | 0.051 |  |  |  |  |  | 
CN1CC2CCC1CN2c1cc2c(c(C(F)(F)F)c1)CN(c1cccc(C3(Cc4nncn4C)COC3)c1)C2=O (configuration not stated) | < 100 | 0.801 | 1.31 | 2.51 | 1.01 | 5 | >=0.201 |  |  |  |  |  | 
Cn1cnnc1CC1(c2cccc(N3Cc4c(cc(N5CCOC5=O)cc4C(F)(F)F)C3=O)c2)COC1 | < 100 | 0.601 | 1.01 | 1.01 | 1.01 | 2.51 | <=0.05 |  |  |  |  |  | 
C[C@H](Cc1nncn1C)c1cc(C2CC2)nc(N2Cc3c(cccc3C(F)(F)F)C2=O)c1 | < 100 | 0.801 | 1.01 | 1.01 | 1.01 | 2.51 | 0.101 |  |  |  |  |  | 
Cn1cnnc1CC1(c2cccc(N3Cc4c(cc(OC5CNC5)cc4C(F)(F)F)C3=O)c2)COC1 | < 100 | 0.801 | 1.01 | 1.01 | 1.01 | 1.01 | 0.051 |  |  |  |  |  | 
C[C@@H](c1cc2c(c(C(F)(F)F)c1)CN(c1cccc(C3(Cc4nncn4C)COC3)c1)C2=O)N1CC(C)(F)C1 | < 100 | >=1.001 | 1.51 | 2.51 | 1.31 | >=7.5 | >=0.201 |  |  |  |  |  | 
CN1C[C@H]2CC[C@@H](C1)N2c1cc(C(=O)Nc2cccc(C3(Cc4nncn4C)COC3)c2)nc(C2CC2)n1 | < 100 | >=1.001 | 1.51 | 5 | 1.31 | >=7.5 | >=0.201 |  |  |  |  |  | 
Cn1cnnc1CC1(c2cccc(N3Cc4c(cc(C5=CCCOC5)cc4C(F)(F)F)C3=O)c2)COC1 | < 100 |  |  |  |  |  |  | 0.801 | 1.01 | 2.51 | 1.01 | 2.51 | 0.101
CN1CC2CC1CN2c1cc2c(c(C(F)(F)F)c1)CN(c1cccc([C@@](C)(F)C(F)(F)c3nncn3C)c1)C2=O (single isomer, unassigned; 563) | < 100 | 0.801 | 1.31 | 1.01 | 1.01 | 2.51 | 0.051 |  |  |  |  |  | 
Cn1cnnc1CC1(c2cccc(N3Cc4c(cc(CN5CCC(F)(F)CC5)cc4C(F)(F)F)C3=O)c2)COC1 | < 100 | >=1.001 | 1.31 | >=7.5 | 1.31 | >=7.5 | >=0.201 |  |  |  |  |  | 

Second part, led by results:

IC50 [2] [nM] | Structure (SMILES) | fold change (FC) [1] | fold change (FC) [3] | fold change (FC) [4] | fold change (FC) [5] | fold change (FC) [6] | fold change (FC) [7] | FC [1] | FC [3] | FC [4] | FC [5] | FC [6] | FC [7]
< 100 | CCOc1cc(N2Cc3c(cc(CN4CC[C@H](F)C4)cc3C(F)(F)F)C2=O)cc(C2(Cc3nncn3C)COC2)c1 | >=1.001 | 1.31 | 5 | 1.31 | >=7.5 | >=0.201 |  |  |  |  |  | 
< 100 | C[C@H](c1cc2c(c(C(F)(F)F)c1)CN(c1cccc(C3(Cc4nncn4C)COC3)c1)C2=O)N1CC2CC2C1 (some centres not stated) | >=1.001 | 1.31 | >=7.5 | 1.31 | >=7.5 | >=0.201 |  |  |  |  |  | 
< 100 | Cn1cnnc1C(F)(F)C1(c2cccc(N3Cc4c(cc(CN5CC[C@H](F)C5)cc4C(F)(F)F)C3=O)c2)CC1 | >=1.001 | 1.31 | 5 | 1.01 | >=7.5 | >=0.201 |  |  |  |  |  | 
< 100 | Cn1cnnc1CC1(c2cccc(N3Cc4c(cc(CN5CCC(C#N)CC5)cc4C(F)(F)F)C3=O)c2)COC1 | >=1.001 | 1.31 | 5 | 1.31 | >=7.5 | >=0.201 |  |  |  |  |  | 
< 100 | Cn1cnnc1CC1(c2cccc(N3Cc4c(cc(N5CC(C(F)(F)F)C5)cc4C(F)(F)F)C3=O)c2)COC1 | >=1.001 | 1.01 | 2.51 | 1.01 | >=7.5 | 0.051 |  |  |  |  |  | 
< 100 | Cn1cnnc1[C@@H](F)C1(c2cccc(N3Cc4c(cc(CN5CCC6(CC6)C5)cc4C(F)(F)F)C3=O)c2)COC1 | >=1.001 | 1.31 | 5 | 1.01 | >=7.5 | 0.101 |  |  |  |  |  | 
< 100 | Cn1cnnc1CC1(c2cccc(N3Cc4c(cc(CN5CCCC56COC6)cc4C(F)(F)F)C3=O)c2)COC1 | 0.801 | 1.31 | 1.01 | 1.01 | 5 | 0.151 |  |  |  |  |  | 
< 100 | Cc1conc1CC1(c2cccc(N3Cc4c(cc(CN5CCC6(CC6)C5)cc4C(F)(F)F)C3=O)c2)COC1 | >=1.001 | 1.31 | >=7.5 | 1.31 | >=7.5 | >=0.201 |  |  |  |  |  | 
< 100 | Cn1cnnc1CC1(c2cccc(N3Cc4c(cc(CN5CC[C@H]6C[C@H]65)cc4C(F)(F)F)C3=O)c2)COC1 | >=1.001 | 1.51 | >=7.5 | 1.51 | >=7.5 | >=0.201 |  |  |  |  |  | 
< 100 | CCOC1CCCN(Cc2cc3c(c(C(F)(F)F)c2)CN(c2cccc(C4(Cc5nncn5C)COC4)c2)C3=O)C1 (configuration not stated) | >=1.001 | 1.51 | >=7.5 | 1.51 | >=7.5 | >=0.201 |  |  |  |  |  | 
< 100 | Cn1cnnc1CC1(c2cccc(N3Cc4c(cc(CN5CCN6C(=O)CCC6C5)cc4C(F)(F)F)C3=O)c2)COC1 (configuration not stated) |  |  |  |  |  |  |  |  |  |  |  | 

From ChEMBL document CHEMBL5050844 (2019)
